Data reported in PMC4168790 (ACS Chemical Biology, 2014).

Assays:
[1] = test system: HsPPT; conditions: cited from earlier work
[2] = biological target: T1, PptT (Mycobacterium tuberculosis, UniProt O33336); assay: biochemical; assay type: binding, M. tuberculosis
T1 sequence (O33336 1-227): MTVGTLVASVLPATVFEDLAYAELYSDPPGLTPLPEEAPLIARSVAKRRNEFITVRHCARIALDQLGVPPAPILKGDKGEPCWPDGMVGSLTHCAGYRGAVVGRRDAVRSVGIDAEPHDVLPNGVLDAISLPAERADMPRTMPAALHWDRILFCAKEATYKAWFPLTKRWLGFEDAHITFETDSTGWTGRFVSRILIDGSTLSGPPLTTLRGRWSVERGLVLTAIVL

[3] = biological target: T2, Sfp (Bacillus subtilis, UniProt P39135); assay: Isothermal titration calorimetry of CoA analogs binding to Sfp; design: species or system B. subtilis
T2 sequence (P39135 1-224): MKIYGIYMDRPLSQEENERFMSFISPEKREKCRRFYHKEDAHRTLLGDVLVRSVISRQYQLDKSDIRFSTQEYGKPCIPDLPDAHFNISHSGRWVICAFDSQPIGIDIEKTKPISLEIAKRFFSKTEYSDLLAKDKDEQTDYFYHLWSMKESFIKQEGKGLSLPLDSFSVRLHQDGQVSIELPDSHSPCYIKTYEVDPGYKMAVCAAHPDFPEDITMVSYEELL

[4] = biological target: T1, PptT; assay type: biochemical, M. tuberculosis; conditions: MAS as target carrier protein (4 µM MAS, 2 µM rhodamine CoA), 250 nM PptT

N=C1Sc2ccccc2C2=NCCCN12 [PD 404, 182]
inhibitory activity against HsPPT [1]: no inhibitory activity

CN=c1nc(-c2ccccc2)n(-c2ccccc2)s1 [SCH-202676]
inhibitory activity against HsPPT [1]: no inhibitory activity

CC(C)(COP(=O)(O)OP(=O)(O)OC[C@H]1O[C@@H](n2cnc3c(N)ncnc32)[C@H](O)[C@@H]1OP(=O)(O)O)[C@@H](O)C(=O)NCCC(=O)NCCS [CoA, coenzyme A]
Kd [2]: 36 ± 13 nM | enthalpy of binding (ΔH), PptT ([2]; ITC, 16°C): −5.78 ± 0.08 kcal mol^–1 | entropy of binding (TΔS), PptT ([2]; ITC, 16°C): 4.14 ± 0.16 kcal mol^–1 | Kd [3]: 3400 ± 200 nM | enthalpy of binding (ΔH), Sfp ([3]; ITC, 16°C): −12.5 ± 0.15 kcal mol^–1 | entropy of binding (TΔS), Sfp ([3]; ITC, 16°C): −5.07 ± 0.38 kcal mol^–1

O=C1c2c(O)ccc(O)c2C(=O)c2c(NCCNCCO)ccc(NCCNCCO)c21 [mitoxantrone 2HCl, mitoxantrone]
IC50, PptT, MAS [4]: inactive

NC(N)=Nc1ccc2[nH]c3c(c2c1)C[C@@]1(O)[C@H]2Cc4ccc(O)c5c4[C@@]1(CCN2CC1CC1)[C@H]3O5.O=C(O)C(F)(F)F.O=C(O)C(F)(F)F [guanidinyl-naltrindole 2CF3COOH, guanidinyl-naltrindole]
inhibitory activity against HsPPT [1]: no inhibitory activity

C[n+]1cc2c3c(ccc2c2ccc4cc5c(cc4c21)OCO5)OCO3 [sanguinarine Cl, sanguinarine chloride]
inhibitory activity against HsPPT [1]: no inhibitory activity

Clc1ccc(C(c2ccc(Cl)cc2)n2cc[n+](CC(OCc3ccc(Cl)cc3Cl)c3ccc(Cl)cc3Cl)c2)cc1 (stereo not shown) [calmidazolium Cl, calmidazolium chloride]
inhibitory activity against HsPPT [1]: no inhibitory activity

CN[C@@H](C)[C@H](O)c1ccccc1 [(−)-ephedrine hemisulfate, (−)-ephedrine]
IC50, PptT, MAS [4]: inactive
